Among the data in patent US20140213513A1 (Sanofi, priority 2012, published 2014) are EC50 values, retold here.

Common to all, as to format: cell-based
Holding throughout (conditions): Table 7; cAMP formation

The target of assay [1] is T1, human GLP-1 receptor (hGLP-1 R) (Homo sapiens, UniProt P43220).
T1 construct: expressed in transfected cells
The experiment in a line: cAMP response of HEK-293 cells stably expressing human GLP-1 receptor (HTRF). An outline of the steps: (§1)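 Intracellular cAMP is quantified by HTRF following a 30-minute room-temperature incubation of cell suspensions (400000 cells/ml) with test compound in HBSS, 20 mM HEPES, 0.1% BSA and 2 mM IBMX.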

The target of assay [2] is T2, human GIP receptor (hGIP R) (Homo sapiens, UniProt P48546).
T2 construct: expressed in transfected cells
T2 sequence (P48546 22-466): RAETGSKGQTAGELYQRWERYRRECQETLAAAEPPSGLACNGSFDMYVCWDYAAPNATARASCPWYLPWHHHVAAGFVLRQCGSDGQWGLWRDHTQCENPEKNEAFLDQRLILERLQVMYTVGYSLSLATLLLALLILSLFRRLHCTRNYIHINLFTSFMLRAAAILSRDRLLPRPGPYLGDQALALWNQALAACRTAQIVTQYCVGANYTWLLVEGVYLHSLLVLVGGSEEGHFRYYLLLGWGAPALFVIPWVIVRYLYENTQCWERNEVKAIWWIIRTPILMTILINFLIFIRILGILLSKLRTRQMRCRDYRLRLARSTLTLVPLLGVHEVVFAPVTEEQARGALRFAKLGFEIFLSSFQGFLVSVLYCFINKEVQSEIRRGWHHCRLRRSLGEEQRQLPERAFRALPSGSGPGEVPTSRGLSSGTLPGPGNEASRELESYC
The experiment in a line: cAMP response of HEK-293 cells stably expressing human GIP receptor (HTRF). Summed up: as §1

For assay [3], the target named is T3, human glucagon receptor (hGLUC R) (Homo sapiens, UniProt P47871).
T3 construct: expressed in transfected cells
T3 sequence (P47871 26-477): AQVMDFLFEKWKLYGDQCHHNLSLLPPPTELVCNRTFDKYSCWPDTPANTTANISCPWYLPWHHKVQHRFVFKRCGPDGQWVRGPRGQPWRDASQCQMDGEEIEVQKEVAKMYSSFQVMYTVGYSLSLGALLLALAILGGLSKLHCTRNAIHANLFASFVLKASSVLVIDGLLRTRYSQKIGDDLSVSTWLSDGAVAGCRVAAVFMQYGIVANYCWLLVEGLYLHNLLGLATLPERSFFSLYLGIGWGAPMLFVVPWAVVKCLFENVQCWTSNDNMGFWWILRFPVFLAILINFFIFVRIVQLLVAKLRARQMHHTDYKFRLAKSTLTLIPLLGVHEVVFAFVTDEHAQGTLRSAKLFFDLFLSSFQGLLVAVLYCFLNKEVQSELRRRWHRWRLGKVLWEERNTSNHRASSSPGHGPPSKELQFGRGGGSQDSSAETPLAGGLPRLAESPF
The experiment in a line: cAMP response of HEK-293 cells stably expressing human glucagon receptor (HTRF). Summed up:
as §1

The structures appear in SMILES notation. *1 amine or outer side, *2 acyl side, *3 side chain or, on linkers, in order; H or OH if unused. Where a SMILES comes first, the peptide text is derived from it. Side-chain parts run from the residue outwards. [ ]: non-standard residue; d: D form. The star is where a group is joined. γGlu = O=C(O)[C@H](CCC(=O)[*:2])N[*:1]; Palmitoyl = CCCCCCCCCCCCCCCC(=O)*; Aib = CC(C)(N)C(=O)O

T1 sequence (P43220 24-463): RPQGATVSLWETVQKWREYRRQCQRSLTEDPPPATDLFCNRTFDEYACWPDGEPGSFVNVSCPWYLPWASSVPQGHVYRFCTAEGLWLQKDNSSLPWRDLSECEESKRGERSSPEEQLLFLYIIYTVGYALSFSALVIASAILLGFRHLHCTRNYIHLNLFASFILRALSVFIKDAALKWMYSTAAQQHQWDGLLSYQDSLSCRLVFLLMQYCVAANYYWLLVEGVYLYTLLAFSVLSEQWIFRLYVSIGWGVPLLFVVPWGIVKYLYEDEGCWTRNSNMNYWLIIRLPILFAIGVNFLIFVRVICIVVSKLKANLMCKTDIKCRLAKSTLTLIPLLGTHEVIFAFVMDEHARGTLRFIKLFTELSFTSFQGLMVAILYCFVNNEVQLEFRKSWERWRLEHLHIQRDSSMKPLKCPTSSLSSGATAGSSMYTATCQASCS

For `CCCCCCCCCCCCCCCC(=O)N[C@@H](CCC(=O)NCCCC[C@H](NC(=O)[C@H](CCC(N)=O)NC(=O)[C@@H](NC(=O)[C@H](CO)NC(=O)[C@H](CC(C)C)NC(=O)[C@H](CC(=O)O)NC(=O)[C@H](CO)NC(=O)[C@@H](NC(=O)[C@H](Cc1ccccc1)NC(=O)[C@@H](NC(=O)CNC(=O)[C@H](CCC(N)=O)NC(=O)C(C)(C)NC(=O)[C@@H](N)Cc1ccc(O)cc1)[C@@H](C)O)[C@@H](C)O)[C@@H](C)CC)C(=O)N[C@@H](CC(=O)O)C(=O)N[C@@H](CO)C(=O)N[C@@H](CCCNC(=N)N)C(=O)N[C@@H](C)C(=O)N[C@@H](C)C(=O)N[C@@H](CCC(N)=O)C(=O)N[C@@H](CC(=O)O)C(=O)N[C@@H](Cc1ccccc1)C(=O)N[C@H](C(=O)N[C@@H](CCC(=O)O)C(=O)N[C@@H](Cc1c[nH]c2ccccc12)C(=O)N[C@@H](CC(C)C)C(=O)N[C@@H](CCCCN)C(=O)N[C@@H](CCCCN)C(=O)NCC(=O)NCC(=O)N1CCC[C@H]1C(=O)N[C@@H](CO)C(=O)N[C@@H](CO)C(=O)NCC(=O)N[C@@H](C)C(=O)N1CCC[C@H]1C(=O)N1CCC[C@H]1C(=O)N1CCC[C@H]1C(=O)N[C@@H](CO)C(N)=O)[C@@H](C)CC)C(=O)O` [SEQ ID NO: 43, Y-Aib-Q-G-T-F-T-S-D-L-S-I-Q-K(yE-x53)-DSRAAQDFIEWLKKGGPSSGAPPPS-NH2] (H-Y[Aib]QGTFTSDLSIQK([γGlu-Palmitoyl])DSRAAQDFIEWLKKGGPSSGAPPPS-NH2), the concentration for a half-maximal effect (EC50) in assay [1] stood at 7 pM; in assay [2], 48.2 pM; in assay [3] it was 114 pM.
Taken in the same sequence, the figures for `CCCCCCCCCCCCCCCC(=O)N[C@@H](CCC(=O)NCCCC[C@H](NC(=O)[C@H](CCC(N)=O)NC(=O)[C@@H](NC(=O)[C@H](CO)NC(=O)[C@H](CC(C)C)NC(=O)[C@H](CC(=O)O)NC(=O)[C@H](CO)NC(=O)[C@@H](NC(=O)[C@H](Cc1ccccc1)NC(=O)[C@@H](NC(=O)CNC(=O)[C@H](CCC(N)=O)NC(=O)C(C)(C)NC(=O)[C@@H](N)Cc1ccc(O)cc1)[C@@H](C)O)[C@@H](C)O)[C@@H](C)CC)C(=O)N[C@@H](CCC(=O)O)C(=O)N[C@@H](CCCCN)C(=O)N[C@@H](C)C(=O)N[C@@H](C)C(=O)N[C@@H](C)C(=O)NC(C)(C)C(=O)N[C@@H](CCC(=O)O)C(=O)N[C@@H](Cc1ccccc1)C(=O)N[C@H](C(=O)N[C@@H](CCC(=O)O)C(=O)N[C@@H](Cc1c[nH]c2ccccc12)C(=O)N[C@@H](CC(C)C)C(=O)N[C@@H](CCCCN)C(=O)N[C@@H](CC(N)=O)C(=O)N[C@H](C(=O)NCC(=O)N1CCC[C@H]1C(=O)N[C@@H](CO)C(=O)N[C@@H](CO)C(=O)NCC(=O)N[C@@H](C)C(=O)N1CCC[C@H]1C(=O)N1CCC[C@H]1C(=O)N1CCC[C@H]1C(=O)N[C@@H](CO)C(N)=O)[C@@H](C)O)[C@@H](C)CC)C(=O)O` [SEQ ID NO: 12, Y-Aib-Q-G-T-F-T-S-D-L-S-I-Q-K(yE-x53)-E-K-A-A-A-Aib-EFIEWLKNTGPSSGAPPPSN H2] (H-Y[Aib]QGTFTSDLSIQK([γGlu-Palmitoyl])EKAAA[Aib]EFIEWLKNTGPSSGAPPPS-NH2) were 5.5 pM, 8 pM and 139 pM.
Taken in the same sequence, the figures for `CCCCCCCCCCCCCCCC(=O)N[C@@H](CCC(=O)NCCCC[C@H](NC(=O)[C@H](CCC(N)=O)NC(=O)[C@@H](NC(=O)[C@H](CO)NC(=O)[C@H](CC(C)C)NC(=O)[C@H](CC(=O)O)NC(=O)[C@H](CO)NC(=O)[C@@H](NC(=O)[C@H](Cc1ccccc1)NC(=O)[C@@H](NC(=O)CNC(=O)[C@H](CCC(N)=O)NC(=O)C(C)(C)NC(=O)[C@@H](N)Cc1ccc(O)cc1)[C@@H](C)O)[C@@H](C)O)[C@@H](C)CC)C(=O)N[C@@H](CCC(=O)O)C(=O)N[C@@H](CCC(N)=O)C(=O)N[C@@H](CCCNC(=N)N)C(=O)N[C@@H](C)C(=O)N[C@@H](C)C(=O)NC(C)(C)C(=O)N[C@@H](CCC(=O)O)C(=O)N[C@@H](Cc1ccccc1)C(=O)N[C@H](C(=O)N[C@@H](CCC(=O)O)C(=O)N[C@@H](Cc1c[nH]c2ccccc12)C(=O)N[C@@H](CC(C)C)C(=O)N[C@@H](CCCCN)C(=O)N[C@@H](CC(N)=O)C(=O)N[C@H](C(=O)NCC(=O)N1CCC[C@H]1C(=O)N[C@@H](CO)C(=O)N[C@@H](CO)C(=O)NCC(=O)N[C@@H](C)C(=O)N1CCC[C@H]1C(=O)N1CCC[C@H]1C(=O)N1CCC[C@H]1C(=O)N[C@@H](CO)C(N)=O)[C@@H](C)O)[C@@H](C)CC)C(=O)O` [SEQ ID NO: 15, Y-Aib-Q-G-T-F-T-S-D-L-S-I-Q-K(yE-x53)-E-Q- R-A-A-Aib-E-F-I-E-W-L-K-N-T-G-P-S-S-G-A-P-P-P-S-NH2] (H-Y[Aib]QGTFTSDLSIQK([γGlu-Palmitoyl])EQRAA[Aib]EFIEWLKNTGPSSGAPPPS-NH2) were 6.9 pM, 11.4 pM and 54 pM.
Consider `CCCCCCCCCCCCCCCC(=O)N[C@@H](CCC(=O)NCCCC[C@H](NC(=O)[C@H](CCC(N)=O)NC(=O)[C@@H](NC(=O)[C@H](CO)NC(=O)[C@H](CC(C)C)NC(=O)[C@H](CC(=O)O)NC(=O)[C@H](CO)NC(=O)[C@@H](NC(=O)[C@H](Cc1ccccc1)NC(=O)[C@@H](NC(=O)CNC(=O)[C@H](CCC(=O)O)NC(=O)C(C)(C)NC(=O)[C@@H](N)Cc1ccc(O)cc1)[C@@H](C)O)[C@@H](C)O)[C@@H](C)CC)C(=O)N[C@@H](CCC(=O)O)C(=O)N[C@@H](CCC(=O)O)C(=O)N[C@@H](CCCNC(=N)N)C(=O)N[C@@H](C)C(=O)N[C@@H](C)C(=O)N[C@@H](Cc1c[nH]cn1)C(=O)N[C@@H](CCC(=O)O)C(=O)N[C@@H](Cc1ccccc1)C(=O)N[C@H](C(=O)N[C@@H](CCC(=O)O)C(=O)N[C@@H](Cc1c[nH]c2ccccc12)C(=O)N[C@@H](CC(C)C)C(=O)N[C@@H](CCCCN)C(=O)N[C@@H](CCCNC(=N)N)C(=O)NC(C)(C)C(=O)NCC(=O)N1CCC[C@H]1C(=O)N[C@@H](CO)C(=O)N[C@@H](CO)C(=O)NCC(=O)N[C@@H](C)C(=O)N1CCC[C@H]1C(=O)N1CCC[C@H]1C(=O)N1CCC[C@H]1C(=O)N[C@@H](CO)C(=O)N[C@@H](CCCCN)C(N)=O)[C@@H](C)CC)C(=O)O` [SEQ ID NO: 57, Y-Aib-E-G-T-F-T-S-D-L-S-I-Q-K(yE-x53)-E-E-R-A-A-H-E-F-I-E-W-L-K-R-Aib-G-P-S-S-G-A-P-P-P-S-K-NH2], for which the EC50 in assay [1] was found to be 7.1 pM; in assay [2], 15.7 pM; in assay [3], 14400 pM.
Taken in the same sequence, the figures for `CCCCCCCCCCCCCCCC(=O)N[C@@H](CCC(=O)NCCCC[C@H](NC(=O)[C@H](CCC(N)=O)NC(=O)[C@H](CCCCN)NC(=O)[C@H](CO)NC(=O)[C@H](CC(C)C)NC(=O)[C@H](CC(=O)O)NC(=O)[C@H](CO)NC(=O)[C@@H](NC(=O)[C@H](Cc1ccccc1)NC(=O)[C@@H](NC(=O)CNC(=O)[C@H](CCC(N)=O)NC(=O)C(C)(C)NC(=O)[C@@H](N)Cc1ccc(O)cc1)[C@@H](C)O)[C@@H](C)O)C(=O)N[C@@H](CC(=O)O)C(=O)N[C@@H](CO)C(=O)N[C@@H](CCCNC(=N)N)C(=O)N[C@@H](C)C(=O)N[C@@H](C)C(=O)N[C@@H](CCCNC(=N)N)C(=O)N[C@@H](CC(=O)O)C(=O)N[C@@H](Cc1ccccc1)C(=O)N[C@H](C(=O)N[C@@H](CCC(=O)O)C(=O)N[C@@H](Cc1c[nH]c2ccccc12)C(=O)N[C@@H](CC(C)C)C(=O)N[C@@H](CCCCN)C(=O)N[C@@H](C)C(=O)NCC(=O)NCC(=O)N1CCC[C@H]1C(=O)N[C@@H](CO)C(=O)N[C@@H](CO)C(=O)NCC(=O)N[C@@H](C)C(=O)N1CCC[C@H]1C(=O)N1CCC[C@H]1C(=O)N1CCC[C@H]1C(=O)N[C@@H](CO)C(N)=O)[C@@H](C)CC)C(=O)O` [SEQ ID NO: 56, Y-Aib-Q-G-T-F-T-S-D-L-S-K-Q-K(yE-x53)-DSRAARDFIEWLKAGGPSSGAPPPS-NH2] (H-Y[Aib]QGTFTSDLSKQK([γGlu-Palmitoyl])DSRAARDFIEWLKAGGPSSGAPPPS-NH2) were 4.6 pM, 162 pM and 19.9 pM.
In the case of `CCCCCCCCCCCCCCCC(=O)N[C@@H](CCC(=O)NCCCC[C@H](NC(=O)[C@H](CCC(N)=O)NC(=O)[C@@H](NC(=O)[C@H](CO)NC(=O)[C@H](CC(C)C)NC(=O)[C@H](CC(=O)O)NC(=O)[C@H](CO)NC(=O)[C@@H](NC(=O)[C@H](Cc1ccccc1)NC(=O)[C@@H](NC(=O)CNC(=O)[C@H](CCC(N)=O)NC(=O)C(C)(C)NC(=O)[C@@H](N)Cc1ccc(O)cc1)[C@@H](C)O)[C@@H](C)O)[C@@H](C)CC)C(=O)N[C@@H](CCC(=O)O)C(=O)N[C@@H](CCCCN)C(=O)N[C@@H](CCCNC(=N)N)C(=O)N[C@@H](Cc1ccc(O)cc1)C(=O)N[C@@H](C)C(=O)NC(C)(C)C(=O)N[C@@H](CCC(=O)O)C(=O)N[C@@H](Cc1ccccc1)C(=O)N[C@H](C(=O)N[C@@H](CCC(=O)O)C(=O)N[C@@H](Cc1c[nH]c2ccccc12)C(=O)N[C@@H](CC(C)C)C(=O)N[C@@H](CCCCN)C(=O)N[C@@H](CC(N)=O)C(=O)N[C@H](C(=O)NCC(=O)N1CCC[C@H]1C(=O)N[C@@H](CO)C(=O)N[C@@H](CO)C(=O)NCC(=O)N[C@@H](C)C(=O)N1CCC[C@H]1C(=O)N1CCC[C@H]1C(=O)N1CCC[C@H]1C(=O)N[C@@H](CO)C(N)=O)[C@@H](C)O)[C@@H](C)CC)C(=O)O` [SEQ ID NO: 13, Y-Aib-Q-G-T-F-T-S-D-L-S-I-Q-K(yE-x53)-E-K-R-Y-A-Aib-EFIEWLKNTGPSSGAPPPSN H2] (H-Y[Aib]QGTFTSDLSIQK([γGlu-Palmitoyl])EKRYA[Aib]EFIEWLKNTGPSSGAPPPS-NH2), the 50% effective concentration (EC50) in assay [1] is 14.1 pM; in assay [2] it was 26.3 pM; in assay [3], 20.2 pM.
